{"source": "patent EP4570803A1", "about": "“SALT FORM AND CRYSTAL FORM OF 5,6-DIHYDROTHIENO[3,4-H]QUINAZOLINE COMPOUND AND PREPARATION METHOD THEREFOR” (NovaOnco JS Therapeutics Co., Ltd., priority 2022, dated 2024)", "key": {"[1]": {"assay": "Solid stability test at high temperature and high humidity (XRPD)", "format": "physicochemical", "description": "According to the \"Guidelines for Stability Testing of APIs and Preparations\" (Chinese Pharmacopoeia 2020 Edition, Part IV, General Rules 9001), the stabiilty of the crystalline form A of compound of formula (I) and the crystalline form B of compound of formula (II) was investigated at high temperature and high humidity (40°C/75%RH, open) (60°C/75%RH, open) conditions.\nWeigh 10-30 mg of the crystalline form A of the formula (I) and the crystalline form B of the compound of formula (II), place them at the bottom of a glass sample bottle, and spread them into a thin layer. The samples were placed open to ensure that the samples were fully in contact with the ambient air. The samples placed under different conditions were sampled and tested (XRPD) on the 10th day, 30th day, and 60th day, and the test results were compared with the initial test results on day 0. Stability test results of the crystalline form of compound A of formula (I) and the crystalline form B of compound of formula (II)"}, "[2]": {"assay": "Pharmacokinetic study of oral administration in male beagle dogs", "format": "in vivo", "description": "Oral administration group: Weigh an appropriate amount of the test compound (calculated in free form), dissolve it in a 0.5% MC aqueous solution, vortex and sonicate for 10 min until the compound was milky white and uniformly suspended, and prepare a 1.0 mg/mL uniform suspension solution for use. Male beagle dogs weighing about 11 kg were selected and orally administered with the test compound. Sample collection time was: 0.083, 0.25, 0.5, 1, 2, 4, 6, 8, and 24 hours.\n1 mL of whole blood was collected from the forelimb vein to prepare plasma for concentration determination by high performance liquid chromatography - tandem mass spectrometry (LC-MS/MS). The non-compartmental model of WinNonlin 8.2.0 (Pharsight, Mountain View, CA), pharmacokinetic software, was used to process plasma concentrations, and the linear logarithmic trapezoidal method was used to calculate pharmacokinetic parameters. Pharmacokinetic study results of crystalline form A, crystalline form B and crystalline form C"}, "[3]": {"assay": "Hygroscopicity study by Dynamic Vapor Sorption (DVS)", "format": "physicochemical", "details": "for Hygroscopicity classification: 25°C and 80% RH; for ΔW: weight gain at 25°C, humidity 80 % RH", "description": "• Instrument model: SMS DVS Intrinsic Dynamic Vapor Sorption Instrument • Test conditions: Take a sample (10 ~ 30 mg) and place it in the DVS sample pan for testing.\nHygroscopicity classification\n10-30 mg of the crystalline form A of the compound of formula (I) was placed in a DVS sample tray for testing.\n10-30 mg of the crystalline form B of the compound of formula (II) was placed in a DVS sample tray for testing.\n10-30 mg of the crystalline form C of the compound of formula (III) was placed in a DVS sample tray for testing."}, "[4]": {"assay": "Crystalline form screening: cooling crystallization", "format": "physicochemical", "details": "50-25 °C", "from_the_text": "The cooling crystallization operation process was to dissolve a certain amount of the crystalline form A of the compound of formula (I) in a certain amount of solvent at high temperature, stir at high temperature for a period of time, and then cool to a lower temperature at a certain cooling rate. If solid precipitates after cooling to a low temperature, filter it out for solid state analysis. Table 7. Cooling crystallization"}, "[5]": {"assay": "Crystalline form screening: anti-solvent crystallization", "format": "physicochemical", "details": "25 - 5 °C", "from_the_text": "The operation process of anti-solvent crystallization was to dissolve a certain amount of the crystalline form A of the compound of formula (I) in a positive solvent to obtain a solution of the raw material drug, slowly add the raw material drug solution to the anti-solvent at a certain temperature, and filter out any solid precipitation for analysis. Table 8. Anti-solvent crystallization"}, "[6]": {"biological_target": "T1, human PLK1 protein kinase (Homo sapiens, UniProt P53350)", "T1 construct": "purchased Reaction Biology Corp", "T1 sequence (P53350 whole entry)": "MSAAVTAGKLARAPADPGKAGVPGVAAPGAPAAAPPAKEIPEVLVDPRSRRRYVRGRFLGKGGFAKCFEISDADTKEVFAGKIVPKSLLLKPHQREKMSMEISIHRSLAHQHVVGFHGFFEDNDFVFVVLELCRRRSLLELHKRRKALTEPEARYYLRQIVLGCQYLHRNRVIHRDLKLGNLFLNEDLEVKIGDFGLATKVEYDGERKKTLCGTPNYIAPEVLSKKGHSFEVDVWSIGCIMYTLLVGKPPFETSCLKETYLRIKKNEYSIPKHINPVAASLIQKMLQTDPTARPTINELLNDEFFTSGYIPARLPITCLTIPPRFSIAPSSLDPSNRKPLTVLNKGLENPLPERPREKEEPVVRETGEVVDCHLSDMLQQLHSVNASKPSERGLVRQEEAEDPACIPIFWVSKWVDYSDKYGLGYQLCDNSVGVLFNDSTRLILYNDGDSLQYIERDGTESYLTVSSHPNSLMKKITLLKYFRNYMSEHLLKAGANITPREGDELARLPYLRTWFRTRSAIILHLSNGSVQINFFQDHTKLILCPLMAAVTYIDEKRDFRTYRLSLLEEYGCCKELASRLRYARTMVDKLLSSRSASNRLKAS", "assay": "33P isotope-labeled PLK1 kinase activity assay in vitro", "format": "biochemical", "description": "The IC50 value was determined using ^33P isotope-labeled kinase activity assay (Reaction Biology Corp) to evaluate the inhibitory ability of the test compounds on human PLK1 protein kinase.\nBuffer conditions: 20 mM HEPES (pH 7.5), 10 mM MgCl2, 1 mM EGTA, 0.01% Brij35, 0.02 mg/ml BSA, 0.1 mM Na3VO4, 2 mM DTT, 1% DMSO\nTest steps: Dissolve the test compound in DMSO at room temperature to prepare a 10 mM solution for use. Dissolve the substrate Casein in a freshly prepared buffer (final concentration 20 µM), add the tested PLK1 kinase (final concentration 12 nM) and mix well. Add the DMSO-dissolved test compound stock solution to the above mixed reaction solution using the acoustic pipetting system Echo 550 according to the set final concentration gradient (highest final concentration was 1 µM, 3-fold dilution, 10 gradients). After incubation at room temperature for 20 minutes, add ^33 P-ATP (final concentration 0.01 µCi/µL), incubate at room temperature for 120 minutes, and then spot the reaction solution on P81 ion exchange filter paper (Whatman # 3698-915). After repeatedly washing the filter paper with 0.75% phosphoric acid solution, the level of residual radioactive phosphorylated substrate on the filter paper was determined. % kinase activity = kinase activity test compound/ kinase activity blank group (DMSO) × 100%. […]"}, "[7]": {"assay": "Crystalline form screening: suspension crystallization", "format": "physicochemical", "details": "for Result (crystal form): 50 °C, suspension", "from_the_text": "The operation process of suspension crystallization was to weigh a certain amount of the crystalline form A of the compound of formula (I), add a certain amount of solvent, maintain the system in a state of suspension and stir at a certain temperature, and filter out the solid for analysis after a period of time. Table 6. Suspension crystallization"}, "[8]": {"details": "dog, plasma, po, 5 mg/kg, 5.0 mpk (calculated in free state), 0.5% MC aqueous suspension"}, "[9]": {"details": "dog, 5 mg/kg, PO, 5.0 mpk (calculated in free state), 0.5% MC aqueous suspension, plasma"}, "[10]": {"details": "listed as crystalline form C of the compound of formula (III)"}}}
{"smiles": "CSc1sc(C(N)=O)c2c1-c1nc(Nc3cc(N4CCN(C)CC4)ccc3OC(F)(F)F)ncc1CC2", "note": "[listing 1 of 3 here]", "values": [{"measurement": "Crystal form", "setting": "[1]; 40 °C /75%RH, open, 10 days, listed as Crystalline Form B of Compound of Formula (II)", "result": "crystal form B"}, {"measurement": "Crystal form", "setting": "[1]; 60 °C /75%RH, open, 10 days, listed as Crystalline Form B of Compound of Formula (II)", "result": "crystal form B"}, {"measurement": "Crystal form", "setting": "[1]; Initial sample, Day 0, listed as Crystalline Form B of Compound of Formula (II)", "result": "crystal form B"}, {"measurement": "AUC(0-t) at 24 h", "setting": "[2]; [8]", "result": 1.11, "unit": "µM·h"}, {"measurement": "Cmax", "setting": "[2]; [8]", "result": 123, "unit": "nM"}, {"measurement": "Tmax", "setting": "[2]; [8]", "result": 4, "unit": "h"}, {"measurement": "half-life", "setting": "[2]; [8]", "result": 5, "unit": "h"}, {"measurement": "Hygroscopicity classification", "setting": "[3]; listed as crystalline form B of the compound of formula (II)", "result": "hygroscopic"}, {"measurement": "ΔW", "setting": "[3]; listed as crystalline form B of compound (II)", "result": 2.078, "unit": "%"}]}
{"smiles": "CSc1sc(C(N)=O)c2c1-c1nc(Nc3cc(N4CCN(C)CC4)ccc3OC(F)(F)F)ncc1CC2", "note": "[listing 2 of 3 here]", "values": [{"measurement": "AUC(0-t) at 24 h", "setting": "[2]; [9]", "result": 1.59, "unit": "µM·h"}, {"measurement": "Cmax", "setting": "[2]; [9]", "result": 132, "unit": "nM"}, {"measurement": "Tmax", "setting": "[2]; [9]", "result": 6, "unit": "h"}, {"measurement": "half-life", "setting": "[2]; [9]", "result": 4, "unit": "h"}, {"measurement": "Hygroscopicity classification", "setting": "[3]; [10]", "result": "hygroscopic"}, {"measurement": "ΔW", "setting": "[3]; [10]", "result": 2.919, "unit": "%"}]}
{"smiles": "CSc1sc(C(N)=O)c2c1-c1nc(Nc3cc(N4CCN(C)CC4)ccc3OC(F)(F)F)ncc1CC2", "note": "[listing 3 of 3 here]", "values": [{"measurement": "Result (crystal form)", "setting": "[4]; Condition 1: Tetrahydrofuran 1.0 mL", "result": "crystal form A"}, {"measurement": "Result (crystal form)", "setting": "[4]; Condition 2: 2- methyl - tetrahydrofuran 5.0 mL", "result": "crystal form A"}, {"measurement": "Result (crystal form)", "setting": "[5]; Condition 1: solvent THF, antisolvent H2O, 2.0+4.0 mL", "result": "crystal form A"}, {"measurement": "Result (crystal form)", "setting": "[5]; Condition 2: solvent THF, antisolvent IPA, 2.0+6 0. mL", "result": "crystal form A"}, {"measurement": "Result (crystal form)", "setting": "[5]; Condition 3: solvent THF, antisolvent Tol, 2.0+4.0 mL", "result": "crystal form A"}, {"measurement": "Result (crystal form)", "setting": "[5]; Condition 4: solvent DCM, antisolvent ACN, 4.0 mL", "result": "crystal form A"}, {"measurement": "Result (crystal form)", "setting": "[5]; Condition 5: solvent DCM, antisolvent MTBE, 4.0 mL", "result": "crystal form A"}, {"measurement": "Result (crystal form)", "setting": "[5]; Condition 6: solvent DMSO, antisolvent EtOAc, 0.6+8.0 mL", "result": "crystal form A"}, {"measurement": "Crystal form", "setting": "[1]; 40 °C /75%RH, open, 10 days", "result": "crystal form A"}, {"measurement": "Crystal form", "setting": "[1]; 40 °C /75%RH, open, 30 days", "result": "crystal form A"}, {"measurement": "Crystal form", "setting": "[1]; 40 °C /75%RH, open, 60 days", "result": "crystal form A"}, {"measurement": "Crystal form", "setting": "[1]; 60 °C /75%RH, open, 10 days", "result": "crystal form A"}, {"measurement": "Crystal form", "setting": "[1]; 60 °C /75%RH, open, 30 days", "result": "crystal form A"}, {"measurement": "Crystal form", "setting": "[1]; 60 °C /75%RH, open, 60 days", "result": "crystal form A"}, {"measurement": "Crystal form", "setting": "[1]; Initial sample, Day 0", "result": "crystal form A"}, {"measurement": "stability under high temperature and high humidity conditions", "setting": "[1]; conclusion", "result": "good stability"}, {"measurement": "absorption after oral administration", "setting": "[2]; conclusion", "result": "well absorbed"}, {"measurement": "AUC(0-t)", "setting": "[2]; [9]", "result": 0.907, "unit": "µM·h"}, {"measurement": "Cmax", "setting": "[2]; [9]", "result": 106, "unit": "nM"}, {"measurement": "Tmax", "setting": "[2]; [9]", "result": 3, "unit": "h"}, {"measurement": "half-life", "setting": "[2]; [9]", "result": 4.6, "unit": "h"}, {"measurement": "inhibitory activity against PLK1", "setting": "[6]; conclusion", "result": "good inhibitory activity"}, {"measurement": "IC50", "setting": "[6]; substrate Casein 20 µM, PLK1 12 nM, 33P-ATP, 120 minutes at room temperature", "result": 2.48, "unit": "nM"}, {"measurement": "Result (crystal form)", "setting": "[7]; Condition 1: Acetonitrile 2.0 mL", "result": "crystal form A"}, {"measurement": "Result (crystal form)", "setting": "[7]; Condition 2: Ethyl acetate 2.0 mL", "result": "crystal form A"}, {"measurement": "Result (crystal form)", "setting": "[7]; Condition 3: Toluene 2.0 mL", "result": "crystal form A"}, {"measurement": "Result (crystal form)", "setting": "[7]; Condition 4: Butanone 1.0 mL", "result": "crystal form A"}, {"measurement": "stability in different solvents and at different temperatures", "setting": "[7]; conclusion over suspension, cooling and anti-solvent crystallization", "result": "good stability"}, {"measurement": "Hygroscopicity classification", "setting": "[3]", "result": "not hygroscopic"}, {"measurement": "ΔW", "setting": "[3]", "result": 0.1671, "unit": "%"}]}
